The target in experiment [1] is purified human, His-tagged PRC2 complex (Homo sapiens (Human), UniProt O75530). Nature of the experiment: Hot Spot HMT assay of PRC2 enzymatic activity (tritiated methyl transfer from SAM to core histone). Type of experiment: biochemical. To be noted: 10 nM purified PRC2 complex, 0.05 mg/ml core histone H3, 1 uM 3H-SAM, 1 hr at 30° C.; read-out: IC50, Inhibition of PRC2-mediated Enzymatic Activity. On the procedure:
Ten-point dose-response curves for compounds of the present invention were determined using a Hot Spot HMT assay (Reaction Biology Corp; see Horiuchi et al., Assay Drug Dev Technol. (2013) 4: 227-236 doi: 10.1089/adt.2012.480). The assay uses purified human, His-tagged PRC2 complex, including N-terminal His-tagged EZH2 enzyme, N-terminal Flag-tagged embryonic ectoderm development protein (EED), N-terminal His-tagged suppressor of zeste 12 (SUZ12), N-terminal His-tagged AEBP2, and N-terminal His-tagged RbAp48. In this assay, the transfer of the tritiated methyl group from radiolabeled S-adenosyl methionine (SAM) to purified core histone protein by EZH2 is quantitated after filtration to determine the activity of the core PRC2 complex in the presence and absence of compound.
Briefly, compounds of the present invention were solubilized in DMSO and a series of 10, three-fold serial dilutions were made for each compound in 15% DMSO. The initial starting concentration for the serial dilutions of each compound was 1.0 μM. Control samples lacking compound, EZH2 enzyme or various reaction components also were prepared and processed in parallel with compound test samples. SAH (S-(5-adenosyl)-L-homocysteine) was used as a positive control for assay validation.
An aliquot of each serial dilution of test compound was added to deep 384 well plate using Acoustic Technology instrument (Echo 550, LabCyte) containing reaction buffer (50 mM Tris-HCl (pH 8.)), 0.01% Brij35, 1 mM EDTA, 1 mM DTT, 1 mM PMSF and 1% DMSO), 10 nM purified PRC2 complex and 0.05 mg/ml core histone H3 in a 5 μl volume. The reaction was mixed gently and then pre-incubated for 20 min at 30° C. The enzymatic reaction was initiated by adding 1 uM S-Adenosyl-L-[methyl ^3H]methionine and incubated for 1 hr at 30° C. After 1 hr, the reaction product was detected using a filter binding method and the amount of tritiated H3 core histone was quantitated using a scintillation counter. The IC50 value for each compound was determined from each 10-point dose-response curve using GraphPad Prism software and the results for exemplary compounds of Formula (I) are shown in Table 5. Key: A=≤250 nM; B=>250 nM—≤500 nM; and C=>500 nM—≤2 μM.

In experiment [2] the test system is PRC2-mediated histone H3 methylation (H3 Lys27 trimethylation) in Pfeiffer cells expressing mutant EZH2 (A677G). Nature of the experiment: Tri-Methyl Histone H3 (Lys 27) sandwich ELISA in Pfeiffer cells. Type of experiment: cell-based, human. To be noted: Pfeiffer cells, 96 hours incubation, ELISA, read-out: IC50, Inhibition of EZH2-mediated Histone H3 Trimethylation. An excerpt:
The Pfeiffer cell line was established from a […] from a patient having metastatic diffuse large B-cell lymphoma (DLBCL). This cell line expresses a mutant form of the EZH2 enzyme (A677G) that results in enhanced EZH2 activity leading to increased methylation of histone H3 Lys27. Increased trimethylation of histone H3 Lys27 is believed to be implicated in tumorgenesis and poor clinical prognosis in lymphomas (McCabe et al., (2012) Nature 492:108-112).
Inhibition of PRC2-mediated histone H3 methylation by compounds of Formula (I) was measured by ELISA using a Tri-Methyl Histone H3 (Lys 27) Sandwich ELISA Kit (Cell Signaling Tech #7866C) in accordance with the manufacturer's instructions. Briefly, Pfeiffer cells were cultured in RPMI medium supplemented with 10% fetal bovine serum and 1% penicillin and 1% streptomycin in 96 well culture plates at 37° C. to a density of 8000 cells/90 μl/well and the cells were harvested. A series of 3-fold serial dilutions of each test compound of Formula (I) were prepared in RPMI medium and added to the cells at final concentrations ranging from 1 μM to 0.15 nM. The plates were incubated at 37° C. for 96 hours.
After incubation, the cells were pelleted by centrifugation in a pre-cooled 4° C. rotor at 1,100 rpm for 10 min and the supernatant was removed by aspiration. The cell pellet was resuspended in 55 μl of Lysis Buffer (0.4M HCl) and incubated on ice with periodic shaking for 30 minutes. The lysed cells were subjected to centrifugation at 4,200 rpm for 10 min at 4° C. and the supernatant containing acid-soluble proteins was collected and the remainder discarded. The acid-soluble proteins were brought to a neutral pH by the addition of 20 μl of Neutralization Buffer (1 M Sodium phosphate, dibasic (pH 12.5), 2.5 mM DTT and 1 mM PMSF) and the neutralized lysates were analyzed by ELISA.
A 65 μl aliquot of each cell lysate was added to a well of a microwell strip, the microwells were sealed using tape and incubated either at 37° C. for two hours or at 4° C. overnight. After incubation, the tape was removed at the microwells were washed four times using 200 μl of 1× Wash Buffer. To each washed microwell, a 100 μl aliquot of an anti-trimethyl histone H3 Lys27 Detection Antibody solution was added and the microwells were incubated at 37° C. for one hour. The Detection Antibody solution was removed by aspiration and the wells were washed four times each using 200 μl of 1× Wash Buffer.
A 100 μl aliquot of an HRP-linked secondary antibody was added to each well, the wells were sealed with tape and incubated at 37° C. for 30 min. The HRP-linked secondary antibody solution was removed by aspiration and the wells were washed four times using 200 μl of 1× Wash Buffer. A 100 μl aliquot of a TMB substrate was added to each well, the wells were sealed with tape and incubated at 37° C. for 10 min or 25° C. for 30 min. The reaction was stopped by the addition of 100 μl aliquot of a STOP solution and the plate was shaken briefly. The degree of histone H3 trimethylation was determined using a spectrophotometric readout by measuring the absorbance at 450 nm and then calculating the amount of trimethylated histone H3. Key: A=≤250 nM; B=>250 nM-≤500 nM; and C=>500 nM-≤5 μM.
On the technique in general: ELISA stands for enzyme-linked immunosorbent assay.

The test system of experiment [3] is Karpas 422 cells expressing mutant EZH2 (Y641N). Nature of the experiment: Karpas 422 cell viability (Cell Titre Glo) assay. The format is cell-based, human. The note with it: CTG viability, time point (Day 4, Day 7 or Day 11) not given, read-out: IC50, Inhibiting Proliferation of Cells Expressing an Activating Mutant Form of EZH2. The procedure: Karpas 422 cell line is a human B cell non-Hodgkin's lymphoma cell line established from a patient having DLBCL. This EZH2 heterozygotic cell line expresses a mutant form of EZH2 enzyme (Y641N) that increases histone H3 methylation and this mutation has been implicated in the tumorgenesis of lymphomas, such as DLBCL.
Karpas 422 cells (PHE cat no., 06101702) were cultured in RPMI medium supplemented with 20% fetal bovine serum and 1% penicillin/1% streptomycin and plated at a density of 1000 cells/90 μl/well in 96 well white assay plates. A dose response curve for compounds of the present invention was determined by adding a 10 μl aliquot of stock solutions of varying concentrations of compounds to the same medium in each well, over a concentration range of 10 μM using 3-fold dilutions to a final concentration of 1.5 nM. The plates were incubated at 37° C. for predetermined time periods, Day 4, Day 7, or Day 11, and the viability of the cells was measured using a CTG assay kit (Cell Titre Glo; Promega cat. no G7573) on Day 4 and Day 7 in accordance with the manufacturer's instructions.
For the viability assay for the Day 11 plates, the plates were subjected to centrifugation at 1100 rpm for five minutes on Day 7 and the supernatant was removed by aspiration. The cells were resuspended in 90 μl aliquot of the appropriate growth medium lacking the compound followed by addition of 10 μl of a 10× stock of the same compound at the same concentration. The viability of the Day 11 cells was measured using the CTG assay kit described above in accordance with the manufacturer's instructions. The IC50 values for each compound at each predetermined time point were calculated using Graph pad PRISM software and the results are shown in Table 7. Key: A=≤250 nM; B=>250 nM-≤500 nM; C=>500 nM-≤5 μM and N.D.=not determined.

Read-outs that look alike come from different tables or passages of the source.

purified human, His-tagged PRC2 complex, sequence (Q15910 whole entry): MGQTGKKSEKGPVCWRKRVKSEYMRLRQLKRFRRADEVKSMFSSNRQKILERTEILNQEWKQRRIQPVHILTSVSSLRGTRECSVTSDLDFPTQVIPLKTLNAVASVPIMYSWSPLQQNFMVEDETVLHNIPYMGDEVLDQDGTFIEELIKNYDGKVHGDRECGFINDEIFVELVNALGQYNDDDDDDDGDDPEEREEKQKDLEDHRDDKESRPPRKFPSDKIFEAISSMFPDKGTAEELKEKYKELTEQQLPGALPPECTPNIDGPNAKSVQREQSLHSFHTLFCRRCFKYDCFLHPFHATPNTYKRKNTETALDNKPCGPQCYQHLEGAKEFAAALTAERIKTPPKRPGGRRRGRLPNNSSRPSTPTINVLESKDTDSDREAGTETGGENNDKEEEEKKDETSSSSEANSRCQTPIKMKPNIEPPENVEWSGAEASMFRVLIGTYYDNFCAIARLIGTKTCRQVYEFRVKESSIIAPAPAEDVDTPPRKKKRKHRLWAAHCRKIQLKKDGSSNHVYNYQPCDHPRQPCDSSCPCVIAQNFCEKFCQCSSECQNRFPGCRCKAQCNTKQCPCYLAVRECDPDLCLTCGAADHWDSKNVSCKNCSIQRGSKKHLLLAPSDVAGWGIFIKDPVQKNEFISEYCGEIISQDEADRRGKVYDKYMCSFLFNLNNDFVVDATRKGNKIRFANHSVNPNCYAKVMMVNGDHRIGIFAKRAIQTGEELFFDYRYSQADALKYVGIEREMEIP
purified human, His-tagged PRC2 complex, sequence (O75530 whole entry): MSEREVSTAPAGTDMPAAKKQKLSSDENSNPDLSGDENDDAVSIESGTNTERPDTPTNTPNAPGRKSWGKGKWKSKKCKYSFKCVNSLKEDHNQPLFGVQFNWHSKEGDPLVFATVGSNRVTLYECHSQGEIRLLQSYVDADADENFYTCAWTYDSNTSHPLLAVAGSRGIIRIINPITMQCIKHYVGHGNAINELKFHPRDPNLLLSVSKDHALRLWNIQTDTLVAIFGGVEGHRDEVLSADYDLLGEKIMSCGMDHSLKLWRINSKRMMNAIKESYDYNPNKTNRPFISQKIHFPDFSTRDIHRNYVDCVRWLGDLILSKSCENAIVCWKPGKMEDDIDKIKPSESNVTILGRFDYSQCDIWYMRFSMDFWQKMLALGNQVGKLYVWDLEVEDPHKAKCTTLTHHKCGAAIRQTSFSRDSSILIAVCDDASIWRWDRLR
purified human, His-tagged PRC2 complex, sequence (Q15022 whole entry partner): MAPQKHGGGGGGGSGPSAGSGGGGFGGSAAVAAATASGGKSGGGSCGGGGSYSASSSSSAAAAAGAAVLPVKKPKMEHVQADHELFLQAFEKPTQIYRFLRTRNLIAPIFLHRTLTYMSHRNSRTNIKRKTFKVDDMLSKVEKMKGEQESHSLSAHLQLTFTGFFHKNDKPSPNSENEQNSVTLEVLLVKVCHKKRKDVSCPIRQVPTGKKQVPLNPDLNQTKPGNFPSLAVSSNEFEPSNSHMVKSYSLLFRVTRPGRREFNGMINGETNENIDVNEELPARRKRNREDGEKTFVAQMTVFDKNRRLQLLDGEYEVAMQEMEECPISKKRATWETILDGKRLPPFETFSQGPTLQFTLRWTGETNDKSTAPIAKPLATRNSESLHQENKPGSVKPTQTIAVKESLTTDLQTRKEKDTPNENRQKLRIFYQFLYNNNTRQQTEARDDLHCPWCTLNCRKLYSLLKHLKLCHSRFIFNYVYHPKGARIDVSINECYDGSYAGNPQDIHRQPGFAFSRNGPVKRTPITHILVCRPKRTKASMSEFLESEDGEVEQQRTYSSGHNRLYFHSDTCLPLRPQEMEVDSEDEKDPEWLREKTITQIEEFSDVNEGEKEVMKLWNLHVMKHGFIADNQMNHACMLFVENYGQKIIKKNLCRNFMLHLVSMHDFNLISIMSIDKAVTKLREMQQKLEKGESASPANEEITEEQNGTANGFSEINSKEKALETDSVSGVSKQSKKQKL
purified human, His-tagged PRC2 complex, sequence (Q6ZN18 whole entry partner): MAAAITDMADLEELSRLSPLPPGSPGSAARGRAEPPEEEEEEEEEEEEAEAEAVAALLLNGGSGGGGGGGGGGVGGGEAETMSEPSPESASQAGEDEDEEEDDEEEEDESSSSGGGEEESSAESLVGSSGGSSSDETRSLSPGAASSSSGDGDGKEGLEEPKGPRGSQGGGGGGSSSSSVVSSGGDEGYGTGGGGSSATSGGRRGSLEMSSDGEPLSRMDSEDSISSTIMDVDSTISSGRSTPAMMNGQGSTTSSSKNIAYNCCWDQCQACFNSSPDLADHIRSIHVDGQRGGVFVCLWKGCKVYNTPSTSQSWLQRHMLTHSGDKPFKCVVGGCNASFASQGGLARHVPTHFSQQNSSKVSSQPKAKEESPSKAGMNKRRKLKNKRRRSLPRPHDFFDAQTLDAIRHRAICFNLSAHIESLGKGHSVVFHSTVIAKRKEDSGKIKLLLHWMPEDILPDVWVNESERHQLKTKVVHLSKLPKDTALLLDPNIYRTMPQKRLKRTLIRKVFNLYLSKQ
purified human, His-tagged PRC2 complex, sequence (Q09028 whole entry partner): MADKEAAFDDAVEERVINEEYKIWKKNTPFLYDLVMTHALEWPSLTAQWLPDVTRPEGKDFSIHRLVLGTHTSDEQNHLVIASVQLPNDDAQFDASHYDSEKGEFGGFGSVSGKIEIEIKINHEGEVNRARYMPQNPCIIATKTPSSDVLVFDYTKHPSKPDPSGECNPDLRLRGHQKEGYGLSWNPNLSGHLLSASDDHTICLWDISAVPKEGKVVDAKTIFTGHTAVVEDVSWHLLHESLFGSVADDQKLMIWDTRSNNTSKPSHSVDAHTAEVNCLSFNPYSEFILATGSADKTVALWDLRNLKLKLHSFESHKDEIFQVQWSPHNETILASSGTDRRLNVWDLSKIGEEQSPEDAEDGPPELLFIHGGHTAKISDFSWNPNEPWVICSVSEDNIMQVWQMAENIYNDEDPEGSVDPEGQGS

On to `Cc1cc(-c2cnc(NCc3c(F)ccc4c3CCO4)n3cc(C(C)N)nc23)n(C)n1` (single isomer, unassigned) [Example 12, 2-(1-aminoethyl)-8-(1,3-dimethyl-1H-pyrazol-5-yl)-N-((5-fluoro-2,3-dihydrobenzofuran-4-yl)methyl)imidazo[1,2-c]pyrimidin-5-amine], for which the IC50 in experiment [1], in experiment [2] and in experiment [3] was below 250 nM in each case.

Regarding `Cc1cc(-c2cnc(NCc3c(F)ccc4c3CCO4)n3cc(C(C)O)nc23)n(C)n1` (stereo not drawn) [Example 7, 1-(8-(1,3-dimethyl-1H-pyrazol-5-yl)-5-(((5-fluoro-2,3-dihydrobenzofuran-4-yl)methyl)amino)imidazo[1,2-c]pyrimidin-2-yl)ethan-1-ol], the results for the IC50 in experiment [1], in experiment [2] (Homo sapiens) and in experiment [3] (Homo sapiens) were below 250 nM, below 250 nM and 500 to 5000 nM, respectively.

Take `COCc1cn2c(NCc3c(F)ccc4c3CCO4)ncc(-c3cc(C)nn3C)c2n1` [Example 9, 8-(1,3-dimethyl-1H-pyrazol-5-yl)-N-((5-fluoro-2,3-dihydrobenzofuran-4-yl)methyl)-2-(methoxymethyl)imidazo[1,2-c]pyrimidin-5-amine]: the IC50 in experiment [1] lay in the range of 500 to 2000 nM; in experiment [2] (Homo sapiens) it was 500 to 5000 nM; in experiment [3] (Homo sapiens), 250 to 500 nM.

Consider `Cc1cc(-c2cnc(NCc3c(F)ccc4c3CCO4)n3cc(CN)nc23)n(C)n1` [Example 10, 2-(aminomethyl)-8-(1,3-dimethyl-1H-pyrazol-5-yl)-N-((5-fluoro-2,3-dihydrobenzofuran-4-yl)methyl)imidazol[1,2-c]pyramidin-5-amine], for which the IC50 in experiment [1], in experiment [2] (Homo sapiens) and in experiment [3] (Homo sapiens) was below 250 nM each time.

Turning to `Cc1cc(S(C)(=O)=O)ccc1-c1cnc(NCc2c(F)ccc3c2CCO3)n2cc(CN)nc12` [Example 13, 2-(aminomethyl)-N-((5-fluoro-2,3-dihydrobenzofuran-4-yl)methyl)-8-(2-methyl-4-(methylsulfonyl)phenyl)imidazo[1,2-c]pyrimidin-5-amine], the IC50 in experiment [1], in experiment [2] (Homo sapiens) and in experiment [3] (Homo sapiens) was below 250 nM each time.

As to `Cn1nc(C(F)(F)F)cc1-c1cnc(NCc2c(F)ccc3c2CCO3)n2cc(CN)nc12` [Example 15, 2-(aminomethyl)-N-((5-fluoro-2,3-dihydrobenzofuran-4-yl)methyl)-8-(1-methyl-3-(trifluoromethyl)-1H-pyrazol-5-yl)imidazo[1,2-c]pyrimidin-5-amine], the figures for the IC50 in experiment [1], in experiment [2] (Homo sapiens) and in experiment [3] (Homo sapiens) were 250 to 500 nM, below 250 nM and below 250 nM, respectively.

Regarding `NCc1cn2c(NCc3c(F)ccc4c3CCO4)ncc(-c3cc(F)cc(F)c3)c2n1` [Example 16, 2-(aminomethyl)-8-(3,5-difluorophenyl)-N-((5-fluoro-2,3-dihydrobenzofuran-4-yl)methyl)imidazo[1,2-c]pyrimidin-5-amine], the IC50 was in the range of 500 to 2000 nM in experiment [1], 500 to 5000 nM in experiment [2] (Homo sapiens) and 500 to 5000 nM in experiment [3] (Homo sapiens).

As for `Cc1c(F)cccc1-c1cnc(NCc2c(F)ccc3c2CCO3)n2cc(CN)nc12` [Example 17, 2-(aminomethyl)-N-((5-fluoro-2,3-dihydrobenzofuran-4-yl)methyl)-8-(3-fluoro-2-methylphenyl)imidazo[1,2-c]pyrimidin-5-amine], the IC50 in experiment [1] lay in the range of 500 to 2000 nM; in experiment [2] (Homo sapiens), 500 to 5000 nM; in experiment [3] (Homo sapiens) it was 500 to 5000 nM.

For the molecule `Cn1nccc1-c1cnc(NCc2c(F)ccc3c2CCO3)n2cc(CN)nc12` [Example 18, 2-(aminomethyl)-N-((5-fluoro-2,3-dihydrobenzofuran-4-yl)methyl)-8-(1-methyl-1H-pyrazol-5-yl)imidazo[1,2-c]pyrimidin-5-amine], the IC50 in experiment [1], in experiment [2] (Homo sapiens) and in experiment [3] (Homo sapiens) was below 250 nM each time.

Turning to `Cc1ncccc1-c1cnc(NCc2c(F)ccc3c2CCO3)n2cc(CN)nc12` [Example 19, 2-(aminomethyl)-N-((5-fluoro-2,3-dihydrobenzofuran-4-yl)methyl)-8-(2-methylpyridin-3-yl)imidazo[1,2-c]pyrimidin-5-amine], the IC50 in experiment [1] is below 250 nM; in experiment [2] (Homo sapiens), 250 to 500 nM; in experiment [3] (Homo sapiens), below 250 nM.

In the case of `COc1ccc(-c2cnc(NCc3c(F)ccc4c3CCO4)n3cc(CN)nc23)c(C)n1` [Example 20, 2-(aminomethyl)-N-((5-fluoro-2,3-dihydrobenzofuran-4-yl)methyl)-8-(6-methoxy-2-methylpyridin-3-yl)imidazo[1,2-c]pyrimidin-5-amine], the IC50 is below 250 nM in experiment [1], 250 to 500 nM in experiment [2] (Homo sapiens) and below 250 nM in experiment [3] (Homo sapiens).

For the origin of these results see US12252493B2, “Imidazo[1,2-c]pyrimidine derivatives as PRC2 inhibitors for treating cancer” (Mirati Therapeutics, Inc., priority 2019, dated 2025).
